Where “and” joins values, the source holds several entries; their conditions need not be identical. Equal entries are not always repeated.
What was measured:
SD rats = test: PK-PD study: urine output increment (diuresis) in rats; type: in vivo, Sprague-Dawley rats
[1] = Excretion experiment in rats (urine, feces); type: in vivo, SD rats; details: single oral dose 100 mg/kg
Experimental: The cumulative excretion ratios of unchanged 25a in the urine, feces, and bile of rats after a single oral dose at 100 mg/kg were 0.14% ± 0.05%, 3.16% ± 0.96%, and 0.018% ± 0.006%, respectively (Figure 6 and Tables S5–S7). […] Further phenotyping and metabolite identification studies should be conducted to elucidate the major elimination forms of 25a in the future.
Four SD rats were adapted in metabolic cages for 3 days in advance and then administrated with 25a at 100 mg/kg orally. Feces and urine were collected and weighed at 0–6 h, 6–12 h, […], 24–36 h, 36–48 h, 48–60 h, and 60–72 h after administration. Parallelly, four SD rats received bile duct cannulation and were given a single dose of 25a at 100 mg/kg orally. Bile was collected and weighed at 0–2 h, 0–4 h, 0–6 h, 0–8 h, 0–10 h, 0–12 h, 0–24 h, 0–36 h, and 0–48 h after administration. All samples were stored at −80 °C until analysis.

rats = system: rats; parameters: method as in PMID 34601246; details: orally administered; cited from earlier work
mice = system: mice; parameters: method as in PMID 34601246; details: orally administered; cited from earlier work
[2] = Pharmacokinetic study in rats (plasma, LC-MS/MS, NCA); details: male, Sprague-Dawley, rat, plasma

SMILES: CC(=O)Nc1ccc(NC(=O)c2ccc(C(C)=O)o2)cc1 [Compound 25a, N-(4-acetamidophenyl)-5-acetylfuran-2-carboxamide]
- urine output increment per 12 h (diuresis) (SD rats; p.o. 25 mg/kg): 0.5 ± 0.2 mL
- urine output increment per 12 h (diuresis) (SD rats; p.o. 50 mg/kg): 1.6 ± 0.8 mL
- urine output increment per 12 h (diuresis) (SD rats; p.o. 100 mg/kg): 2.7 ± 0.9 mL
- total cumulative excretion fractions of unchanged 25a in urine, feces, and bile [1]: less than 5%
- Accumulated Amount in feces ([1]; 0-6 h): 0.248 ± 0.056 mg
- Accumulated Amount in urine ([1]; 0-6 h): 0.0129 ± 0.0059 mg
- Concentration in feces ([1]; 0-6 h): 6547.5 ± 1407.8 ng/mL
- Concentration in urine ([1]; 0-6 h): 1865.0 ± 576.4 ng/mL
- The cumulative excretion ratio in feces ([1]; 0-6 h): 1.009 ± 0.233%
- The cumulative excretion ratio in urine ([1]; 0-6 h): 0.051 ± 0.021%
- cumulative excretion ratio of unchanged 25a in feces ([1]; 100 mg/kg): 3.16% and 3.16% ± 0.96%
- cumulative excretion ratio of unchanged 25a in urine ([1]; 100 mg/kg): 0.14% and 0.14% ± 0.05%
- Accumulated Amount in feces ([1]; 6-12 h): 0.565 ± 0.130 mg
- Accumulated Amount in urine ([1]; 6-12 h): 0.0221 ± 0.0046 mg
- Concentration in feces ([1]; 6-12 h): 9237.5 ± 2337.8 ng/mL
- Concentration in urine ([1]; 6-12 h): 1696.3 ± 1,244.3 ng/mL
- The cumulative excretion ratio in feces ([1]; 6-12 h): 2.261 ± 0.383%
- The cumulative excretion ratio in urine ([1]; 6-12 h): 0.089 ± 0.018%
- Accumulated Amount in feces ([1]; 12-24 h): 0.798 ± 0.309 mg
- Accumulated Amount in urine ([1]; 12-24 h): 0.0305 ± 0.0066 mg
- Concentration in feces ([1]; 12-24 h): 6053.3 ± 4545.2 ng/mL
- Concentration in urine ([1]; 12-24 h): 869.3 ± 442.0 ng/mL
- The cumulative excretion ratio in feces ([1]; 12-24 h): 3.139 ± 0.954%
- The cumulative excretion ratio in urine ([1]; 12-24 h): 0.125 ± 0.037%
- Accumulated Amount in feces ([1]; 24-36 h): 0.802 ± 0.310 mg
- Accumulated Amount in urine ([1]; 24-36 h): 0.0317 ± 0.0077 mg
- Concentration in feces ([1]; 24-36 h): 188.2 ± 121.9 ng/mL
- Concentration in urine ([1]; 24-36 h): 132.4 ± 108.1 ng/mL
- The cumulative excretion ratio in feces ([1]; 24-36 h): 3.153 ± 0.957%
- The cumulative excretion ratio in urine ([1]; 24-36 h): 0.131 ± 0.042%
- Accumulated Amount in feces ([1]; 36-48 h): 0.802 ± 0.310 mg
- Accumulated Amount in urine ([1]; 36-48 h): 0.0327 ± 0.0085 mg
- Concentration in feces ([1]; 36-48 h): 7.0 ± 8.8 ng/mL
- Concentration in urine ([1]; 36-48 h): 104.4 ± 95.7 ng/mL
- The cumulative excretion ratio in feces ([1]; 36-48 h): 3.155 ± 0.956%
- The cumulative excretion ratio in urine ([1]; 36-48 h): 0.135 ± 0.047%
- Accumulated Amount in feces ([1]; 48-60 h): 0.802 ± 0.310 mg
- Accumulated Amount in urine ([1]; 48-60 h): 0.0332 ± 0.0089 mg
- Concentration in feces ([1]; 48-60 h): 2.1 ± 3.1 ng/mL
- Concentration in urine ([1]; 48-60 h): 49.6 ± 31.9 ng/mL
- The cumulative excretion ratio in feces ([1]; 48-60 h): 3.155 ± 0.956%
- The cumulative excretion ratio in urine ([1]; 48-60 h): 0.137 ± 0.049%
- Accumulated Amount in feces ([1]; 60-72 h): 0.802 ± 0.310 mg
- Accumulated Amount in urine ([1]; 60-72 h): 0.0337 ± 0.0090 mg
- Concentration in feces ([1]; 60-72 h): 3.8 ± 3.8 ng/mL
- Concentration in urine ([1]; 60-72 h): 32.5 ± 11.2 ng/mL
- The cumulative excretion ratio in feces ([1]; 60-72 h): 3.156 ± 0.955%
- The cumulative excretion ratio in urine ([1]; 60-72 h): 0.139 ± 0.049%
- Na+, K+, and Cl− levels in the blood (rats): without disturbing
- duration of urea-selective diuresis (rats): 8 h
- urine output vs vehicle control (rats): three times higher urine output than vehicle control
- Na+, K+, and Cl− levels in the blood (mice): without disturbing
- duration of urea-selective diuresis (mice): 8 h
- urine output vs vehicle control (mice): three times higher urine output than vehicle control
- AUC(0-inf) ([2]; iv, 1 mg/kg): 503 ± 124 ng·h/mL
- AUC(0-t) ([2]; iv, 1 mg/kg): 501 ± 124 ng·h/mL
- C0 ([2]; iv, 1 mg/kg): 1710 ± 398 ng/mL
- MRT ([2]; iv, 1 mg/kg, rats, single i.v. 1 mg/kg): 36 ± 6 min
- half-life ([2]; iv, 1 mg/kg, t1/2, rats, single i.v. 1 mg/kg): 53.4 ± 31.2 min
- AUC(0-inf) ([2]; po, 25 mg/kg): 2530 ± 362 ng·h/mL
- AUC(0-t) ([2]; po, 25 mg/kg): 2520 ± 395 ng·h/mL
- CL/F ([2]; po, 25 mg/kg, CL/F, rats, single p.o. 25 mg/kg): 165 mL/min/kg
- Cmax ([2]; po, 25 mg/kg, Cmax, rats, single p.o. 25 mg/kg): 515 ± 107 ng/mL
- bioavailability ([2]; po, 25 mg/kg, F (oral bioavailability), rats, single p.o. 25 mg/kg): 20.1 ± 0.8%
- MRT ([2]; po, 25 mg/kg, rats, single p.o. 25 mg/kg): 312 ± 24 min
- concentration at 0.083 h ([2]; po, 25 mg/kg, Mean plasma concentration, rats, 0.083 h, single p.o. 25 mg/kg): 282 ± 62.3 ng/mL
- concentration at 0.167 h ([2]; po, 25 mg/kg, Mean plasma concentration, rats, 0.167 h, single p.o. 25 mg/kg): 431 ± 116 ng/mL
- concentration at 0.25 h ([2]; po, 25 mg/kg, Mean plasma concentration, rats, 0.25 h, single p.o. 25 mg/kg): 515 ± 122 ng/mL
- concentration at 0.5 h ([2]; po, 25 mg/kg, Mean plasma concentration, rats, 0.5 h, single p.o. 25 mg/kg): 167 ± 33.5 ng/mL
- concentration at 1 h ([2]; po, 25 mg/kg, Mean plasma concentration, rats, 1 h, single p.o. 25 mg/kg): 245 ± 92.5 ng/mL
- concentration at 2 h ([2]; po, 25 mg/kg, Mean plasma concentration, rats, 2 h, single p.o. 25 mg/kg): 206 ± 83.7 ng/mL
- concentration at 4 h ([2]; po, 25 mg/kg, Mean plasma concentration, rats, 4 h, single p.o. 25 mg/kg): 372 ± 74.3 ng/mL
